Earlier results in US20080176908A1, “Method of using squalene monooxygenase inhibitors to treat acne” (priority 2007, published 2008).

Conditions: compared with 2.5% hydrocortisone; test details not given
For Cc1cc(C2CCCCC2)n(O)c(=O)c1 [Ciclopirox, 6-cylcohexyl-1-hydroxy-4-methyl-pyridin-2-one], the anti-inflammatory ability is listed as “greater anti-inflammatory ability than 2.5% hydrocortisone”.
For CN(C/C=C/c1ccccc1)Cc1cccc2ccccc12 [naftifine, (E)-N-cinnamyl-N-methyl-1-naphthalenemethylamine], the anti-inflammatory ability is given as “greater anti-inflammatory ability than 2.5% hydrocortisone”.
For CN(CC=CC#CC(C)(C)C)Cc1cccc2ccccc12 [terbinafine, N,6,6-trimethyl-N-(naphthalene-1-ylmethyl)hept-2-en-4-yn-1-amine], the anti-inflammatory ability is given as “greater anti-inflammatory ability than 2.5% hydrocortisone”.
